Reference: the kinase profiling compilation of Christmann-Franck et al. (2016)

Tests used:
Assay in all cases: KINOMEscan competition binding
[1] = target: PKN3 (M.tuberculosis) (UniProt Q6P5Z2); conditions: compound 1.0 µM
[2] = target: RET (human) (UniProt P07949)
[3] = target: RIPK2 (human) (UniProt O43353)
[4] = target: MAP2K5 (human) (UniProt Q13163)
[5] = target: CDK4 CCND1 (human) (UniProt P11802+P24385); conditions: compound 1.0 µM
[6] = test system: CPK1 (P.falciparum); conditions: compound 1.0 µM
[7] = target: RPS6KA6 KD2 (human) (UniProt Q9UK32)
[8] = target: CDK4 CCND3 (human) (UniProt P11802+P30281); conditions: compound 1.0 µM
[9] = target: MAP3K1 (human) (UniProt Q13233)
[10] = target: STK16 (human) (UniProt O75716)
[11] = target: PDGFRB (human) (UniProt P09619)
[12] = test system: FLT3 (human), P36888 [ITD]; conditions: compound 1.0 µM

Sequence of PDGFRB (human) (P09619 whole entry, looked up): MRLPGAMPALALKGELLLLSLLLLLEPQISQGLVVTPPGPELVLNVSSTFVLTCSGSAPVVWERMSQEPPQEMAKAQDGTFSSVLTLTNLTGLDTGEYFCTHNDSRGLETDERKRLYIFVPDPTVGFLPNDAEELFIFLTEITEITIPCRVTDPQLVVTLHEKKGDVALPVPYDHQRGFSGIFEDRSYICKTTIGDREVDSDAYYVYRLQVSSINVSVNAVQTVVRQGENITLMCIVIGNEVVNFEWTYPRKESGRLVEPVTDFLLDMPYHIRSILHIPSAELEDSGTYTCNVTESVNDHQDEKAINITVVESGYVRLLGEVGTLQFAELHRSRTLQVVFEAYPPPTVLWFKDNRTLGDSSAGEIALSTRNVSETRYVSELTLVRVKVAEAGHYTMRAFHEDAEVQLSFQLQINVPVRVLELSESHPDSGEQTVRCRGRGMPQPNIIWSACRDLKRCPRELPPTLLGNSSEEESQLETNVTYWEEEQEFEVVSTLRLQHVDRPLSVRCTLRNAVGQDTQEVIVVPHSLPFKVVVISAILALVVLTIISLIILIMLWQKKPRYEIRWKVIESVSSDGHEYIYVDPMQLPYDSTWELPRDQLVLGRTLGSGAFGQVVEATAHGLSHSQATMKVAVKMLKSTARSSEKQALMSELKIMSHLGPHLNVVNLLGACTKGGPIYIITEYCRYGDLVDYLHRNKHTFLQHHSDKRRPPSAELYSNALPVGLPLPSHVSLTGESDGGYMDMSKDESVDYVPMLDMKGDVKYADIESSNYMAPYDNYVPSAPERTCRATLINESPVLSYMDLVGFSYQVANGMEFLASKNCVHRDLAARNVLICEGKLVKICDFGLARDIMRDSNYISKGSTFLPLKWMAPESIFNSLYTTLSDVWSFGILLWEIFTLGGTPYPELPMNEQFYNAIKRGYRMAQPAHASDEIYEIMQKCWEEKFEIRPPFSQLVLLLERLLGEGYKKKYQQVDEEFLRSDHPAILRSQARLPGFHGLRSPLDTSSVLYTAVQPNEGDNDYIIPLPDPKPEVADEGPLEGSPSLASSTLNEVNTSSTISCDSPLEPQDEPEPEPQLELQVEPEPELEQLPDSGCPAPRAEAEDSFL
Sequence of RPS6KA6 KD2 (human) (Q9UK32 whole entry, looked up): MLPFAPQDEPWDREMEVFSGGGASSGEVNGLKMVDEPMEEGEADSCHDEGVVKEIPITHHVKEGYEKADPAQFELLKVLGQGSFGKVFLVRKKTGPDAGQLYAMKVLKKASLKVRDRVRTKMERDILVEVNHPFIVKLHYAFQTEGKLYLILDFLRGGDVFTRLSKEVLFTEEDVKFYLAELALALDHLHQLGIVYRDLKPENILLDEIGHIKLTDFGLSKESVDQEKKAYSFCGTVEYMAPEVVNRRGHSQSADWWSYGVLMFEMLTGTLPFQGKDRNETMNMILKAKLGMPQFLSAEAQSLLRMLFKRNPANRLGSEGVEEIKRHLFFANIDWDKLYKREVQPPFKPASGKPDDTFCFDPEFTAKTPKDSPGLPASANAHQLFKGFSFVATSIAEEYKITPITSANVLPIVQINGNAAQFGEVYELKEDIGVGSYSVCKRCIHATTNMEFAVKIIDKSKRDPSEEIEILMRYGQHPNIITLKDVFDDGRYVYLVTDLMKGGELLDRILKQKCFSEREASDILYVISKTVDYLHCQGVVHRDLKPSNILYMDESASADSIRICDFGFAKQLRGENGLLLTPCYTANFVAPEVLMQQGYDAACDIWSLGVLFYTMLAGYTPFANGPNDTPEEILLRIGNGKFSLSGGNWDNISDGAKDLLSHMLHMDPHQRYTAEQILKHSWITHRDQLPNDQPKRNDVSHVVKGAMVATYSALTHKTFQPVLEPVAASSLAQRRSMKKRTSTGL
Sequence of RET (human) (P07949 whole entry, looked up): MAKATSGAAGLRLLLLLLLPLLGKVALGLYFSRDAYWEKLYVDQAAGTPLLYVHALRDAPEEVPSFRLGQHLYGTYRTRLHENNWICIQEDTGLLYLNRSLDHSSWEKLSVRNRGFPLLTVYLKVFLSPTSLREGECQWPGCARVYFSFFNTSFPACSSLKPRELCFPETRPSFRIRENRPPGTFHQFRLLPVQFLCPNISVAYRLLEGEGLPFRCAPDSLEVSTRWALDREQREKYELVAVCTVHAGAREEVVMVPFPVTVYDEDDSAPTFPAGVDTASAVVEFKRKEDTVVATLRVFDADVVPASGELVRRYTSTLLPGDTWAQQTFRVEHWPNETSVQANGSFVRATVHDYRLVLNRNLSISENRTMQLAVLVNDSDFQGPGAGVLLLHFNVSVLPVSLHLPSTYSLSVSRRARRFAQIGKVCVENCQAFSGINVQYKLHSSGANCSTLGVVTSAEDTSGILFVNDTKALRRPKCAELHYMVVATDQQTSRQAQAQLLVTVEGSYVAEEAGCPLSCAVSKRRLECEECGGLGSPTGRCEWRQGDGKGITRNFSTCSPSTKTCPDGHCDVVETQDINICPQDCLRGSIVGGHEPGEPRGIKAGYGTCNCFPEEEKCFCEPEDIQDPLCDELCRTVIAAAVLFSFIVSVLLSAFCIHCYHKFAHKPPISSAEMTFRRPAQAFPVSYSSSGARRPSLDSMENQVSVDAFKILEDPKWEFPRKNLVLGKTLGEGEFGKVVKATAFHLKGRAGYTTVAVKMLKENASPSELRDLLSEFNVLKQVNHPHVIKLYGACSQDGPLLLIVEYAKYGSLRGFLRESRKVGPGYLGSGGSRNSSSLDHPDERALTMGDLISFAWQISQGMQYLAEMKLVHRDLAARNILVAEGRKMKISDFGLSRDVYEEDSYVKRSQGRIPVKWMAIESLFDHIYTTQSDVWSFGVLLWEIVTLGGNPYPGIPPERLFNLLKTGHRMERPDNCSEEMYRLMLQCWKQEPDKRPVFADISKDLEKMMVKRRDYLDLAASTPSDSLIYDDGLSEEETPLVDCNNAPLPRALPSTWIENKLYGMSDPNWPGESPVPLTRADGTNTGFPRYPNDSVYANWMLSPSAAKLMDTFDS
Sequence of PKN3 (M.tuberculosis) (Q6P5Z2 whole entry, looked up): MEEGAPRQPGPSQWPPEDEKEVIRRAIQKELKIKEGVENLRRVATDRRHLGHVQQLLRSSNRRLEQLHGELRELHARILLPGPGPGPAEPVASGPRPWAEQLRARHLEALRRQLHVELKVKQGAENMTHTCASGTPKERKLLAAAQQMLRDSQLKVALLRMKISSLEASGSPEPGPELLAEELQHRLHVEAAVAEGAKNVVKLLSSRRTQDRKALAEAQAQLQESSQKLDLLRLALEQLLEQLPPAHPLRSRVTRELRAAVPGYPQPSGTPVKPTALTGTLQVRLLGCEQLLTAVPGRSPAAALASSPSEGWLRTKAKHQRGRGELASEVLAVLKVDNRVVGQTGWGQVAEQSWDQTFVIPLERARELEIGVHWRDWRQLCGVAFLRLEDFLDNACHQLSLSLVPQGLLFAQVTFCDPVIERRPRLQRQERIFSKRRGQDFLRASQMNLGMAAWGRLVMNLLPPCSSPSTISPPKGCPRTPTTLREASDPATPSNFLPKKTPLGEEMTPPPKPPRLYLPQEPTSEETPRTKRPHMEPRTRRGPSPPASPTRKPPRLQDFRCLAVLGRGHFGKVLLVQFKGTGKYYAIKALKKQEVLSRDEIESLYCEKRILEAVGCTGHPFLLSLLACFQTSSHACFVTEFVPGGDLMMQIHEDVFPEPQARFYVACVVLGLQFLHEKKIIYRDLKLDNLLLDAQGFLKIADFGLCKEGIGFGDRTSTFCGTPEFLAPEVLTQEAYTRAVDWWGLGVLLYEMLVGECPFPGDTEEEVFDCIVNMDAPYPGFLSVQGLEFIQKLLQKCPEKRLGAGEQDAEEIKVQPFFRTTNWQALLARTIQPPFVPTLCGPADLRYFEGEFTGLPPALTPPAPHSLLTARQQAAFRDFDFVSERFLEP
Sequence of MAP2K5 (human) (Q13163 whole entry, looked up): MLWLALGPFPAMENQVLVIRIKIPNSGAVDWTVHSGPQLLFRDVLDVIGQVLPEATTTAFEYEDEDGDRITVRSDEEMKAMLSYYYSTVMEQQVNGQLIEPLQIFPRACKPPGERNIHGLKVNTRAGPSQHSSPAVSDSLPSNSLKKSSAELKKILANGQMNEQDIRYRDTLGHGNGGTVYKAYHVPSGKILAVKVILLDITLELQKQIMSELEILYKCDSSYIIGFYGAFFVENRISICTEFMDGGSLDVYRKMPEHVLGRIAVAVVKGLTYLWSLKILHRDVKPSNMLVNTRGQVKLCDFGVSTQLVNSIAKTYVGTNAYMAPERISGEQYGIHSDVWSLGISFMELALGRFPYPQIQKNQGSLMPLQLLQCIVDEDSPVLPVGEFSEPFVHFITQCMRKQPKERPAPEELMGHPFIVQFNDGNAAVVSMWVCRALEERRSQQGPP
Sequence of CDK4 CCND1 (human) (P11802 whole entry, looked up): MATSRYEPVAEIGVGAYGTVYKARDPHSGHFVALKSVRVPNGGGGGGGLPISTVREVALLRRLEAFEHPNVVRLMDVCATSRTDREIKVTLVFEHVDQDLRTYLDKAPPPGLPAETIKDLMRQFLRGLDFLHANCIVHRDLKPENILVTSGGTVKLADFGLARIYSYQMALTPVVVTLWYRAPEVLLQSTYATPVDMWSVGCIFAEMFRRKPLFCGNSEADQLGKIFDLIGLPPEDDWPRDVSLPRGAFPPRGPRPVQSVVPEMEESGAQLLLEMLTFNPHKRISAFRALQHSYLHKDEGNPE
Sequence of CDK4 CCND1 (human) (P24385 whole entry, looked up): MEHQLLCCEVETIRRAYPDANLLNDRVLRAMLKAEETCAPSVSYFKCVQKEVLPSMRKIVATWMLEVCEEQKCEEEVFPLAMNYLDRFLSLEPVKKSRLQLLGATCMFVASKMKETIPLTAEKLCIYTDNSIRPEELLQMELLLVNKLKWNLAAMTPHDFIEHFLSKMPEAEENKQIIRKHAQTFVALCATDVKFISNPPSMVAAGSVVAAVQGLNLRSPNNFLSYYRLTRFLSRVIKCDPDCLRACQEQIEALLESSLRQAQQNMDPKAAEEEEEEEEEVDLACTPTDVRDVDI

With Cc1ccc(-c2c(/C=C(\C#N)C(=O)NC(C)C)n(CCCO)c3ncnc(N)c23)cc1 the kinase still bound, per cent of control [1] was 100%, the Kd [2] was 360 nM and the Kd [3] was 310 nM. For the same compound, the Kd [4] was 2300 nM, the residual activity [5] was 100% and the kinase still bound, per cent of control [6] was 68%. It also gave a Kd [7] of 1.2 nM, a residual activity [8] of 95% and a Kd [9] of 45 nM. It also gave a Kd [10] of 230 nM, a Kd [11] of 2800 nM and a kinase still bound, per cent of control [12] of 75%.
